This note sets out measurements from patent publication US10766893B2 (priority 2017, dated 2020).

The structures appear in SMILES notation.

What all share (experiment): biochemical
What all share (type): biochemical
Conditions in all cases: 15 nM tritium labelled cAMP, 1 hr at room temperature

In one experiment the target is PDE1B (Homo sapiens (Human), UniProt Q01064). An excerpt:
(§1) Table 1 lists the IC50 value for inhibition of PDE1 by the compounds of the invention. […] PDE1 assays are described in the Experimental Section.

The next experiment has as its target PDE1C (Homo sapiens (Human), UniProt Q14123).
Source text: as §1

Another experiment concerns the target PDE1A (Homo sapiens (Human), UniProt P54750).
Source text: as §1

Chain of PDE1C (Q14123 whole entry): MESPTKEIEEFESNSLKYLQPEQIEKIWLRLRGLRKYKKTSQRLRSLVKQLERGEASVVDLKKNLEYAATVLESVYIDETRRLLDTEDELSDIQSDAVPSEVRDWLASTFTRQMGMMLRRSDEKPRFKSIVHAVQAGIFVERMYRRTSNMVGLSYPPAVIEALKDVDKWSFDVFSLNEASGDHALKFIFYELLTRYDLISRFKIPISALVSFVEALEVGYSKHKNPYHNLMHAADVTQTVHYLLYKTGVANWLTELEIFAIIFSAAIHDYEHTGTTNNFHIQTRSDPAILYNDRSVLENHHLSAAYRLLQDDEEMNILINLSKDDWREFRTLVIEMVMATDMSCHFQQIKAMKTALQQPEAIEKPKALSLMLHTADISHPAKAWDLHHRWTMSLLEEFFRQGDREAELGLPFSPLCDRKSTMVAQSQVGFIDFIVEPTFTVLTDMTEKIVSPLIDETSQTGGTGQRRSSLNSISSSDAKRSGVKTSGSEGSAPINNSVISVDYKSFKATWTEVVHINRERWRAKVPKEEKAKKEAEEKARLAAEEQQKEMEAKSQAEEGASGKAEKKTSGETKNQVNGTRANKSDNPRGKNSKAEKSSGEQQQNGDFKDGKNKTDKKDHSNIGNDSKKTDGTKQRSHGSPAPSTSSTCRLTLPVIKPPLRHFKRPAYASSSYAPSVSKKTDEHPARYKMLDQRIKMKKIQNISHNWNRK
Chain of PDE1B (Q01064 whole entry): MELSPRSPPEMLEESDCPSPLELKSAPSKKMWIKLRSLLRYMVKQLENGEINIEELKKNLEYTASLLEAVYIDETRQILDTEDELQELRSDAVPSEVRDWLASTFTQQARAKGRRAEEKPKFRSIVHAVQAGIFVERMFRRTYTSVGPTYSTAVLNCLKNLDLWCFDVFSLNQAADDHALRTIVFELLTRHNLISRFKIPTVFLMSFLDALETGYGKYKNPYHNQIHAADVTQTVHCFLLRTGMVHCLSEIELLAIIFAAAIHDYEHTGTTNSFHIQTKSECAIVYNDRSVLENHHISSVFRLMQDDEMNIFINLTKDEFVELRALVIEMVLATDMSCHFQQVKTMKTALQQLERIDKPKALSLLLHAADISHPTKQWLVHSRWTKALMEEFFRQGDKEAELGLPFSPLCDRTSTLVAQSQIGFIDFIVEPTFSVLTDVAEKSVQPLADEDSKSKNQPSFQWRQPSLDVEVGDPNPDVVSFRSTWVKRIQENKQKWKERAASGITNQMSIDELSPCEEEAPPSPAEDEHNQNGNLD
Chain of PDE1A (P54750 whole entry): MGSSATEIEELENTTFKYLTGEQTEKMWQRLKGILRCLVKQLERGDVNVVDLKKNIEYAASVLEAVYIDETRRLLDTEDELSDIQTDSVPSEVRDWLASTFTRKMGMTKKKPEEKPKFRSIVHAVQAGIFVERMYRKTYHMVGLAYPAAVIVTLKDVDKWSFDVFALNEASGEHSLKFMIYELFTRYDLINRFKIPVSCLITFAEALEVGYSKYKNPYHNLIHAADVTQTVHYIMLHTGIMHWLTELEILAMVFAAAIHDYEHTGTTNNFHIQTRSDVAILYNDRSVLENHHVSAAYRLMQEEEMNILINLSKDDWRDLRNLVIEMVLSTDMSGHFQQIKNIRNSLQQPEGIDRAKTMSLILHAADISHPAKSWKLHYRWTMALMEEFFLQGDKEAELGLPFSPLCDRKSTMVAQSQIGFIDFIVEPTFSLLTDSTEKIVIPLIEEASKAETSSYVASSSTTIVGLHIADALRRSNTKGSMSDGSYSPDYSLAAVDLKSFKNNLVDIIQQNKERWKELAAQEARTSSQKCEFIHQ

Consider `CCOc1cnccc1-c1cc(NCc2cccnc2OC)c2c(n1)c(C)nn2C(C)C` [Example 30b, 5-(3-ethoxy-4-pyridyl)-1-isopropyl-N-[(2-methoxy-3-pyridyl)methyl]-3-methyl-pyrazolo[4,3-b]pyridin-7-amine], for which the IC50 – broadly, the point on the concentration scale where inhibition reaches its midpoint – on PDE1B stood at 2.7 nM; on PDE1C it was 65 nM; against PDE1A, 27 nM.
In the same order, the values of `CCCOc1cnccc1-c1cc(NCc2cnn(C)c2)c2c(n1)c(C)nn2C(C)C` [Example 31b, 1-isopropyl-3-methyl-N-[(1-methylpyrazol-4-yl)methyl]-5-(3-propoxy-4-pyridyl)pyrazolo[4,3-b]pyridin-7-amine] are 0.38 nM, 18 nM and 4.6 nM.
In the same order, the values of `CCOc1cnccc1-c1cc(NCc2nnc(C)o2)c2c(n1)c(C)nn2C(C)C` [Example 34b, 5-(3-ethoxy-4-pyridyl)-1-isopropyl-3-methyl-N-[(5-methyl-1,3,4-oxadiazol-2-yl)methyl]pyrazolo[4,3-b]pyridin-7-amine] are 7 nM, 130 nM and 49 nM.
In the same order, the values of `Cc1nc2cccc(-c3cc(NCc4cnn(C)c4)c4c(n3)c(C)nn4C(C)C)c2o1` [Example 36b, 1-isopropyl-3-methyl-5-(2-methyl-1,3-benzoxazol-7-yl)-N-[(1-methylpyrazol-4-yl)methyl]pyrazolo[4,3-b]pyridin-7-amine] are 2.4 nM, 28 nM and 14 nM.
As to `Cc1nn(C(C)C)c2c(NCc3cnn(C)c3)cc(-c3cccc4ncoc34)nc12` [Example 37b, 5-(1,3-benzoxazol-7-yl)-1-isopropyl-3-methyl-N-[(1-methylpyrazol-4-yl)methyl]pyrazolo[4,3-b]pyridin-7-amine], the IC50 against PDE1B is 2.4 nM; against PDE1C, 14 nM; against PDE1A, 16 nM.
In the same order, the values of `Cc1nn(C(C)C)c2c(NCc3cnn(C)c3)cc(-c3cccc4cc[nH]c34)nc12` [Example 38b, 5-(1H-indol-7-yl)-1-isopropyl-3-methyl-N-[(1-methylpyrazol-4-yl)methyl]pyrazolo[4,3-b]pyridin-7-amine] are 100 nM, 350 nM and 590 nM.
The corresponding values for `Cc1nn(C(C)C)c2c(NCc3cnn(C)c3)cc(-c3cccc4cn[nH]c34)nc12` [Example 39b, 5-(1H-indazol-7-yl)-1-isopropyl-3-methyl-N-[(1-methylpyrazol-4-yl)methyl]pyrazolo[4,3-b]pyridin-7-amine] are 24 nM, 300 nM and 140 nM.
